Measurements as given in patent US10131663B2, “Chemical compounds” (AstraZeneca AB, priority 2016, dated 2018).
pIC50: −log10 of the molar value. In brackets after ≈: the same amount, converted by molar mass.

Legend:
[1] = biological target: recombinant human Estrogen Receptor alpha ligand binding domain (ER alpha-LBD (GST)) (Homo sapiens (Human), UniProt P03372); assay: ERα binding assay (LanthaScreen TR-FRET competition); conditions: TR-FRET, displacement of Fluormone ES2
Procedure, shortened: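 Competition binding to GST-tagged human ERα ligand-binding domain, read by LanthaScreen TR-FRET: Tb-anti-GST antibody labels the receptor and compounds displace a fluorescent tracer, lowering the signal. IC50 was taken from dose-response curve fitting.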

[2] = biological target: Estrogen Receptor (ERα) in MCF-7 cells (Homo sapiens (Human), UniProt P03372); assay: MCF-7 ER down-regulation assay (immuno-fluorescence); format: cell-based
Procedure, shortened: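 Compounds dispensed acoustically from DMSO stocks onto MCF-7 cells; cells fixed 20 min at room temperature, then automated immunostaining for ERα with overnight incubation at 4° C. Read-out is mean total ER fluorescence intensity normalized to cell number (intensity per cell), with curve fitting for concentration-response values.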

[3] = Thermodynamic solubility (shake-flask); format: physicochemical; conditions: aqueous phosphate buffer, 25 °C, pH 7.4, aqueous buffer, thermodynamic from solid, aqueous phosphate buffer pH 7.4, 24 hours
Procedure, shortened: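 Shake-flask method starting from 10 mM DMSO stocks, which are dried before use. Residue equilibrated 24 h at 25° C. in aqueous phosphate buffer, pH 7.4. Dissolved fraction separated and quantified by UPLC/MS/MS, with QC samples in each run.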

[4] = Human plasma protein binding (equilibrium dialysis); format: in vitro ADME; conditions: dialysis 18 hours
Procedure, shortened: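 Fraction unbound (fu %) in human plasma, from LC/MSMS of plasma and buffer sides (7-point plasma calibration) after 18 h rapid equilibrium dialysis. Single determinations, with compounds pooled up to 10 per plasma pool.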

[5] = log D (shake flask, 1-octanol/aqueous buffer); format: physicochemical
Procedure, shortened: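 Distribution between 1-octanol and aqueous buffer at pH 7.4 was measured by shake flask, with compounds run in mixtures of ten. Relative concentrations in each phase were quantified by UPLC with quantitative MS. Caffeine served as a low-log D QC sample in all runs.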

[6] = Human hepatocyte assay (metabolic stability); format: in vitro ADME; conditions: human hepatocytes
Experimental: The metabolic stability of compounds in human hepatocytes was assessed using the following protocol: • 1. Prepare 10 mM stock solutions of compound and control compounds in appropriate solvent (DMSO). Place incubation medium (L-15 Medium) in a 37° C. water bath, and allow warming for at least 15 minutes prior to use. • 2. Add 80 μL of acetonitrile to each well of the 96-well deep well plate (quenching plate). • 3. In a new 96-well plate, dilute the 10 mM test compounds and the control compounds to 100 μM by combining 198 μL of acetonitrile and 2 μL of 10 mM stock. • 4. Remove a vial of cryopreserved (less than −150° C.) human hepatocytes (LiverPool™ 10 Donor Human hepatocytes obtained from Celsis IVT. Chicago, Ill. (Product No. S01205)) from storage, ensuring that vials remain at cryogenic temperatures until thawing process ensues. As quickly as possible, thaw the cells by placing the vial in a 37° C. water bath and gently shaking the vials. Vials should remain in water bath until all ice crystals have dissolved and are no longer visible. After thawing is complete, spray vial with 70% ethanol, transfer the vial to a bio-safety cabinet. • 5. Open the vial and pour the contents into the 50 mL conical tube containing thawing medium. Place the 50 mL conical tube into a centrifuge and spin at 100 g for 10 minutes. […] Using Cellometer® Vision, count cells and determine the viable cell density. Cells with poor viability (<80% viability) are not acceptable for use. […] Transfer 247.5 μL of hepatocytes into each well of a 96-well cell culture plate. Place the plate on Eppendorf Thermomixer Comfort plate shaker to allow the hepatocytes to warm for 10 minutes. • 8. Add 2.5 μL of 100 μM test compound or control compounds into an incubation well containing cells, mix to achieve a homogenous suspension at 0.5 min, which when achieved, will define the 0.5 min time point. At the 0.5 min time, transfer 20 μL of incubated mixture to wells in a “Quenching plate” followed by vortexing. • 9. Incubate the plate at 37° C. at 900 rpm on an Eppendorf Thermomixer Comfort plate shaker. […] Centrifuge the quenching plates for 20 minutes at 4,000 rpm. 4 different compounds are pooled into one cassette and used for LC/MS/MS analysis.
All calculations were carried out using Microsoft Excel. Peak areas were determined from extracted ion chromatograms. In vitro intrinsic clearance (in vitro Clint, in […]) of parent compound was determined by regression analysis of the Ln percent parent disappearance vs. time curve.
V=incubation volume (0.25 mL);
N=number of hepatocytes per well (0.25×10^6 cells).

[7] = Human Caco-2 bidirectional permeability A to B and B to A; format: in vitro ADME; conditions: for Papp at 2 h: Caco-2, 2 hours, pH 7.4
Experimental: An automated assay was used to determine the bidirectional permeability (efflux and uptake) of compounds in Caco-2 cells carried out over 2 hours at pH 7.4.
The efflux ratio (ER) can be determined using the following equation: ER=Papp(B-A)/Papp(A-B) Where Papp (B-A) indicates the apparent permeability coefficient in basolateral to apical direction, and Papp (A-B) indicates the apparent permeability coefficient in apical to basolateral direction. Human Caco-2 Passive Permeability A to B Papp

[8] = Human Caco-2 passive permeability A to B Papp; format: in vitro ADME; conditions: apical pH 6.5, basolateral pH 7.4, efflux inhibitor cocktail
Experimental: An automated assay was used to determine the passive permeability of compounds in Caco-2 cell monolayers carried out over 2 hours with an apical pH of 6.5 and basolateral pH of 7.4. The Caco-2 AB inhibition assay is carried out with chemical inhibition of the three major efflux transporters ABCB1 (P-gp), ABCG2 (BCRP) and ABCC2 (MRP2) in Caco-2 cells. Incubation of both apical and basolateral is carried out with a cocktail of inhibitors (50 μM quinidine, 20 μM sulfasalazine and 100 μM benzbromarone). Samples were analyzed through LC/MS/MS to estimate the apparent permeability coefficients (Papp) of compounds across Caco-2 cell monolayers and results are quoted in units of ×10^−6 cm/s.

ERα receptor = ERα receptor (Homo sapiens (Human), UniProt P03372); conditions: 500 mg monthly dose; cited from earlier work
ERα receptor, sequence (P03372 whole entry): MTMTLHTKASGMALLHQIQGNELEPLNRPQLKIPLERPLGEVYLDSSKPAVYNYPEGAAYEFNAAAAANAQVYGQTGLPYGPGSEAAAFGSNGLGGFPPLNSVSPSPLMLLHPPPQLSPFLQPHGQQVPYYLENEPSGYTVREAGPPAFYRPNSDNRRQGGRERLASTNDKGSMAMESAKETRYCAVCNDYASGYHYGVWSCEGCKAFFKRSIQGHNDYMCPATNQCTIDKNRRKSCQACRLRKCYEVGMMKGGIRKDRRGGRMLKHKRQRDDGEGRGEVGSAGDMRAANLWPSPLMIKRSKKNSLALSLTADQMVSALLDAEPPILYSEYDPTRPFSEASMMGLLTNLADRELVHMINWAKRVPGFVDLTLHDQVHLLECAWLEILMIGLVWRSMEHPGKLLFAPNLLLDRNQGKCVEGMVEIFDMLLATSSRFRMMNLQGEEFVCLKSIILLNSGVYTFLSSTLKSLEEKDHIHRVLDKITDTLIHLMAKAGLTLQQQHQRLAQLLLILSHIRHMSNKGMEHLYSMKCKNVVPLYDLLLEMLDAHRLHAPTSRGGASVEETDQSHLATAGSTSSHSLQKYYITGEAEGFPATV

Estrogen Receptor (ERα) in MCF-7 cells, sequence (P03372 whole entry): as above
recombinant human Estrogen Receptor alpha ligand binding domain (ER alpha-LBD (GST)), sequence (P03372 307-554): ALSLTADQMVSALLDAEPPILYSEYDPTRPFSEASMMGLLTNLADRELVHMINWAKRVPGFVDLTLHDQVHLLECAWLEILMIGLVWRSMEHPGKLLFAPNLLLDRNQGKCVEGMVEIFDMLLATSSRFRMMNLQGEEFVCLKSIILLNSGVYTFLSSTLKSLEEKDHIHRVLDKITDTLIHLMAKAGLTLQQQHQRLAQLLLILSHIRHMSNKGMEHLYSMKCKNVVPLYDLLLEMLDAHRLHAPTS

Row | Compound | pIC50 [1] | pIC50 [2] | solubility at 24 h [3] [µM] | Human plasma protein binding (% free) [4] [% free] | logD ([5]; 1-octanol/aqueous buffer, pH 7.4, pH 7.4, 1-octanol/aqueous buffer) | hepatocyte CLint at 1 µM [6] [µL/min/1e6 cells] | Papp at 2 h [7] [×10⁻⁶ cm/s] | efflux ratio at 2 h ([7]; Caco-2, pH 7.4) | Papp at 2 h [8] [×10⁻⁶ cm/s] | logD ([5]; pH 7.4, 1-octanol/aqueous buffer) | turnover of the receptor in patient samples (ERα receptor)
1 | C[C@@H]1Cc2c(ccc3[nH]ncc23)[C@@H](c2c(F)cc(NC3CN(CCCF)C3)cc2F)N1CC1(F)CC1 [Example 11, N-(3,5-difluoro-4-((6S,8R)-7-((1-fluorocyclopropyl)methyl)-8-methyl-6,7,8,9-tetrahydro-3H-pyrazolo[4,3-f]isoquinolin-6-yl)phenyl)-1-(3-fluoropropyl)azetidin-3-amine] | 7.70 | 10.03 | 186 (≈ 93.3 µg/mL) | 2 | 3.9 | 7 | 1.6 | 1.4 | – | – | –
2 | C[C@@H]1Cc2c(ccc3[nH]ncc23)[C@@H](c2ccc(NC3CN(CCCF)C3)c(F)n2)N1CC(F)(F)F [Example 29, 2-fluoro-N-(1-(3-fluoropropyl)azetidin-3-yl)-6-((6S,8R)-8-methyl-7-(2,2,2-trifluoroethyl)-6,7,8,9-tetrahydro-3H-pyrazolo[4,3-f]isoquinolin-6-yl)pyridin-3-amine] | – | – | 779 (≈ 385 µg/mL) | 16 | – | – | 12 | – | 24 | 3 | –
3 | C[C@]12CC[C@@H]3c4ccc(O)cc4C[C@@H](CCCCCCCCC[S+]([O-])CCCC(F)(F)C(F)(F)F)[C@H]3[C@@H]1CC[C@@H]2O (some centres unmarked) [Fulvestrant, fulvestrant] | – | – | – | – | – | – | – | – | – | – | less than 50%
